Measured values from patent US20260217701A1, “SELECTIVE BET INHIBITORS AND USES THEREOF” (Tay Therapeutics Limited, priority 2022, published 2026).
Several values for one entry are separate records, joined by “and”; a condition that tells them apart may be missing. Equal values may be shown once. Read-outs that look alike come from different tables or passages of the source.

Assay: Dog PK study #1 (Compound A IV and PO, propylene glycol formulation)
Type: in vivo, beagle dogs
Conditions: for Vd: read-out: Vss—obs
Description: The purpose of this study was to examine the pharmacokinetics of Compound A in beagle dogs. Four beagle dog studies were undertaken, one where Compound A was formulated in a propylene glycol based formulation (Dog PK study #1-PO and IV), a second where Compound A was formulated in a HPBCD based formulation (Dog PK study #2-IV), a third where Compound A was formulated in a 5% DMSO/15% PEG-400/80% (10% VE-TPGS) formulation (Dog PK study #3-PO), and a fourth where Compound A was formulated in […]/15% PEG-400/80% (10% VE-TPGS) formulation (Dog PK study #4-PO).
For Dog PK study #1, two solutions of different concentrations of Compound A were prepared in 20% propylene glycol/20% Vitamin E TPGS/60% water as outlined in Table 2A in Experimental Method A. The solutions of Compound A in 20% propylene glycol/20% Vitamin E TPGS/60% water were prepared freshly prior to use. The Compound A solutions administered were then administered to animals either intravenously (IV) or orally (PO) and animals were then monitored over a 24 h period (Table 3B). Body weight was recorded prior to dosing, and detailed clinical observations were made prior to dosing and throughout the study, as needed.
Blood samples (~0.3 mL) were collected according to a schedule (shown below) by venipuncture of peripheral veins except for the dosing vein, and EDTA-K2 was used as anticoagulant. Within 30 minutes of collection, the samples were centrifuged at approximately 2000 times g-force for 10 minutes at 4° C. to obtain blood plasma. The plasma samples were immediately divided into two aliquots (~75 μL each), transferred to a cryogenic vial, and stored in a freezer at −75±15° C. prior to analysis.
Blood samples for IV were collected at 0.083, 0.25, 0.5, 1, 2, 4, 8, 24 h and blood samples for PO were collected at 0.25, 0.5, 1, 2, 4, 8, and 24 h following the initial dosing (0 h).
The concentration of Compound A in the blood plasma was determined through liquid chromatography-mass spectrometry (LC-MS). The experiments were conducted on a Shimadzu HPLC(DGU-20A5R; LC-30AD; SIL-30AC; Rack Changer II; CTO-30A; and CBM-20A) and AB API 5500+LC/MS/MS instrument with an Agilent Poroshell EC-C18 4 μm (50×2.1 mm) column. A gradient of 95% water (0.1% formic acid)/95% acetonitrile (0.1% formic acid) was used as the mobile phase. The sample injection volume was 10 μL, and the flow rate was 0.6 mL/min. The gathered data were used for pharmacokinetic calculations using T1/2, C0, AUClast, AUCinf, MRTinf, Cl, Vss, and Number of Points for Regression as parameters.
The desired serial concentrations of working solutions were achieved by diluting stock solution of analyte with 50% acetonitrile in water solution. 5 μL of working solutions (5, 10, 20, 50, 100, 500, 1000, 5000, 10000 ng/mL) were added to 50 μL of the blank Beagle Dogs plasma to achieve calibration standards of 0.5~1000 ng/ml (0.5, 1, 2, 5, 10, 50, 100, 500, 1000 ng/ml) in a total volume of 55 μL. Five quality control samples at 1 ng/ml, 2 ng/ml, 5 ng/ml, 50 ng/mL and 800 ng/ml for plasma were prepared independently of those used for the calibration curves. These QC samples were prepared on the day of analysis in the same way as calibration standards.
55 μL standards, 55 μL QC samples and 55 μL unknown samples (50 μl plasma with 5 μL blank solution were added to 200 μL of acetonitrile containing IS mixture (verapamil) for precipitating protein respectively. Then the samples were vortexed for 30 s. After centrifugation at 4° C., 3900 rpm for 15 min, the supernatant was diluted 3 times with water. 10 μL of diluted supernatant was injected into the LC/MS/MS system for quantitative analysis.

[1] = IV 1 mg/kg, individual animals, 1 mg/kg
[2] = beagle, dog, plasma, iv, 1 mg/kg, IV 1 mg/kg, individual animals, read-out: Plasma concentration
[3] = beagle, dog, plasma, iv, 1 mg/kg, IV 1 mg/kg, mean, read-out: Average plasma concentration
[4] = beagle, dog, plasma, iv, 1 mg/kg, IV 1 mg/kg, mean
[5] = beagle, dog, plasma, iv, 1 mg/kg, IV 1 mg/kg, individual animals
[6] = beagle, dog, plasma, po, 5 mg/kg, oral 5 mg/kg, individual animals, read-out: Plasma concentration
[7] = beagle, dog, plasma, po, 5 mg/kg, oral 5 mg/kg, mean, read-out: Average plasma concentration
[8] = beagle, dog, plasma, po, 5 mg/kg, oral 5 mg/kg, mean
[9] = beagle, dog, plasma, po, 5 mg/kg, oral 5 mg/kg, individual animals
[10] = oral 5 mg/kg, individual animals, 5 mg/kg

Question: For `Cn1cc(-c2ccccc2)c(-c2cn(C)c(=O)c3[nH]c(-c4cnn(C(F)(F)F)c4)cc23)cc1=O` [Compound A, 6-methyl-4-(1-methyl-2-oxo-5-phenyl-1,2-dihydropyridin-4-yl)-2-(1-(trifluoromethyl)-1H-pyrazol-4-yl)-1,6-dihydro-7H-pyrrolo[2,3-c]pyridin-7-one], which AUClast [1] is on record?
Answer: The AUClast was 4746 ng·h/mL and 2876 ng·h/mL and 7862 ng·h/mL.

Question: What about the AUClast/D [1] of the same compound?
Answer: The AUClast/D was 4746 (ng · h/mL)/(mg/kg) and 2876 (ng · h/mL)/(mg/kg) and 7862 (ng · h/mL)/(mg/kg).

Question: What about the AUClnf [1] of the same compound?
Answer: Its AUClnf is 4892 ng·h/mL and 2944 ng·h/mL and 8955 ng·h/mL.

Question: And the “AUC—%Extrap—obs” value [1]?
Answer: Its value is 2.98% and 2.32% and 12.2%.

Question: What about the C0 [1] of the same compound?
Answer: Its C0 is 1618 ng/mL and 1767 ng/mL.

Question: What about the CI_obs [1] of the same compound?
Answer: The CI_obs was 3.41 mL/min/kg and 5.66 mL/min/kg and 1.86 mL/min/kg.

Question: What about the “MRTlnf—obs” value [1] of the same compound?
Answer: The value was 5.21 h and 4.15 h and 10.0 h.

Question: What about the T1/2 [1] of the same compound?
Answer: Its T1/2 is 5.23 h and 8.60 h.

Question: And the “Vss—obs” value [1]?
Answer: Its value is 1.41 L/kg and 1.12 L/kg.

Question: And the AUClast/D (IV 1 mg/kg, mean)?
Answer: Its AUClast/D is 5162 (ng · h/mL)/(mg/kg).

Question: And the “AUC—%Extrap—obs” value (IV 1 mg/kg, mean)?
Answer: Its value is 5.8%.

Question: And the CI_obs (IV 1 mg/kg, mean)?
Answer: The CI_obs was 3.64 mL/min/kg.

Question: What about the “MRTlnf—obs” value (IV 1 mg/kg, mean) of the same compound?
Answer: Its value is 6.5 h.

Question: What about the “time over which plasma concentration increased after oral administration” value (PO, all animals) of the same compound?
Answer: The value was 2 h.

Question: What about the concentration at 0.083 h [2] of the same compound?
Answer: Its concentration at 0.083 h is 1480 ng/mL.

Question: What about the concentration at 0.083 h [3] of the same compound?
Answer: Its concentration at 0.083 h is 1480 ng/mL.

Question: And the concentration at 0.25 h [2]?
Answer: The concentration at 0.25 h was 1130 ng/mL.

Question: What about the concentration at 0.25 h [3] of the same compound?
Answer: The concentration at 0.25 h was 1130 ng/mL.

Question: What about the concentration at 0.5 h [2] of the same compound?
Answer: Its concentration at 0.5 h is 971 ng/mL.

Question: And the concentration at 0.5 h [3]?
Answer: The concentration at 0.5 h was 912 ng/mL.

Question: What about the concentration at 1 h [2] of the same compound?
Answer: The concentration at 1 h was 802 ng/mL.

Question: And the concentration at 1 h [3]?
Answer: The concentration at 1 h was 764 ng/mL.

Question: What about the concentration at 2 h [2] of the same compound?
Answer: The concentration at 2 h was 594 ng/mL.

Question: And the concentration at 2 h [3]?
Answer: The concentration at 2 h was 586 ng/mL.

Question: And the concentration at 4 h [4]?
Answer: The concentration at 4 h was 293 ng/mL.

Question: What about the concentration at 8 h [4] of the same compound?
Answer: The concentration at 8 h was 169 ng/mL.

Question: And the concentration at 24 h [4]?
Answer: The concentration at 24 h was 38.7 ng/mL.

Question: What about the half-life [5] of the same compound?
Answer: Its half-life is 5.26 h.

Question: What about the C0 (beagle, dog, plasma, iv, 1 mg/kg, IV 1 mg/kg, individual animals, read-out: C0) of the same compound?
Answer: Its C0 is 1690 ng/mL.

Question: And the Vd [5]?
Answer: The Vd was 1.06 L/kg.

Question: And the AUC [4]?
Answer: Its AUC is 5600 ng·h/mL.

Question: What about the AUC(0-t) [4] of the same compound?
Answer: The AUC(0-t) was 5160 ng·h/mL.

Question: And the half-life [4]?
Answer: Its half-life is 6.37 h.

Question: And the C0 (beagle, dog, plasma, iv, 1 mg/kg, IV 1 mg/kg, mean, read-out: C0)?
Answer: Its C0 is 1690 ng/mL.

Question: And the Vd [4]?
Answer: Its Vd is 1.2 L/kg.

Question: What about the concentration at 0.25 h [6] of the same compound?
Answer: The concentration at 0.25 h was 25.1 ng/mL.

Question: What about the concentration at 0.25 h [7] of the same compound?
Answer: Its concentration at 0.25 h is 26.7 ng/mL.

Question: What about the concentration at 0.5 h [6] of the same compound?
Answer: The concentration at 0.5 h was 147 ng/mL.

Question: And the concentration at 0.5 h [7]?
Answer: The concentration at 0.5 h was 127 ng/mL.

Question: And the concentration at 1 h [7]?
Answer: The concentration at 1 h was 293 ng/mL.

Question: What about the concentration at 2 h [7] of the same compound?
Answer: Its concentration at 2 h is 435 ng/mL.

Question: What about the concentration at 4 h [8] of the same compound?
Answer: Its concentration at 4 h is 369 ng/mL.

Question: What about the concentration at 8 h [8] of the same compound?
Answer: Its concentration at 8 h is 123 ng/mL.

Question: And the concentration at 24 h [8]?
Answer: The concentration at 24 h was 29.9 ng/mL.

Question: What about the AUC [9] of the same compound?
Answer: Its AUC is 4520 ng·h/mL.

Question: What about the half-life [9] of the same compound?
Answer: The half-life was 4.54 h.

Question: And the AUC [8]?
Answer: The AUC was 4270 ng·h/mL.

Question: What about the AUC(0-t) [8] of the same compound?
Answer: The AUC(0-t) was 3500 ng·h/mL.

Question: And the half-life [8]?
Answer: Its half-life is 4.07 h.

Question: And the Cmax (beagle, dog, plasma, po, 5 mg/kg, oral 5 mg/kg, mean, read-out: Cmax)?
Answer: The Cmax was 435 ng/mL.

Question: What about the Tmax (beagle, dog, plasma, oral 5 mg/kg, individual animals) of the same compound?
Answer: The Tmax was 2 h.

Question: And the AUClast [10]?
Answer: Its AUClast is 4398 ng·h/mL and 2122 ng·h/mL and 3976 ng·h/mL.

Question: And the AUClast/D [10]?
Answer: Its AUClast/D is 880 (ng · h/mL)/(mg/kg) and 424 (ng · h/mL)/(mg/kg) and 795 (ng · h/mL)/(mg/kg).

Question: And the AUClnf [10]?
Answer: The AUClnf was 4019 ng·h/mL.

Question: And the “AUC—%Extrap—obs” value [10]?
Answer: Its value is 2.78% and 1.09%.

Question: And the Cmax [10]?
Answer: The Cmax was 498 ng/mL and 228 ng/mL and 580 ng/mL.

Question: And the F [10]?
Answer: Its F is 16.2% and 8.22% and 14.4%.

Question: And the “MRTlnf—obs” value [10]?
Answer: Its value is 6.47 h and 5.27 h.

Question: And the T1/2 [10]?
Answer: Its T1/2 is 3.61 h.

Question: What about the AUClast/D (oral 5 mg/kg, mean) of the same compound?
Answer: The AUClast/D was 700 (ng · h/mL)/(mg/kg).

Question: And the “AUC—%Extrap—obs” value (oral 5 mg/kg, mean)?
Answer: Its value is 1.93%.

Question: And the F (oral 5 mg/kg, mean)?
Answer: The F was 12.9%.

Question: And the “MRTlnf—obs” value (oral 5 mg/kg, mean)?
Answer: Its value is 5.87 h.

Question: What about the availability and tolerability (overall statement on the four dog PK studies) of the same compound?
Answer: Its availability and tolerability is “IV and orally available and well tolerated”.
